From patent US20150290280A1, “ANTIMICROBIAL ARTICLES PRODUCED BY ADDITIVE MANUFACTURING” (ORTHOPAEDIC INNOVATION CENTER INC., priority 2012, published 2015)

Tests used:
[1] = test system: Staphylococcus aureus; test: Zones of inhibition around 3D-printed coupons on S. aureus plated on Tryptic soy agar (Example 1); format: cell-based; details: 3D-printed PLA coupon (25 mm diameter) comprising 1% tobramycin; shiny side down; TSA; 72 h at 37° C.
Protocol: The 1% tobramycin/PLA filament was supplied to the extrusion nozzle of a STRATASYS® MOJO® FDM® 3D printer (STRATASYS and MOJO are registered trademarks of Stratasys Inc., Eden Prairie, Minn., USA) to print replicate test coupons with an extrusion temperature of 205° C. […] Control coupons having the same physical dimensions and appearance as the test coupons, were printed with the STRATASYS® MOJO® FDM® 3D printer by feeding the control PLA filament through the extrusion nozzle at an extrusion temperature of 205° C.
Aliquots of a culture of Staphylococcus aureus grown in Tryptic soy broth (TSB) were plated onto the surface of Tryptic soy agar (TSA) contained within Petri plates. Two test coupons were placed onto the plated S. aureus culture in a Petri plate with one shiny side down and one matte side down. Two control coupons were placed onto the plated S. aureus culture in a Petri plate with one shiny side down and one matte side down. Triplicate plates were prepared with test coupon and with control coupons. The Petri plates were incubated for 72 h at 37° C. after which, the plates were examined for the occurrence of zones of inhibition around the coupons. No inhibition of the growth of S. aureus in the Petri plates receiving the control coupons. […]

[2] = test system: S. aureus; test: Elution of antibiotics from 3D-printed coupons assessed by inhibition of growth of S. aureus on Meuller Hinton agar (Examples 3 and 4); format: cell-based, Staphylococcus aureus; details: about 72 hrs, 35-37° C., 25 = coupon diameter = no inhibition; for zone of inhibition, articles comprising PLA, antibiotic concentration 1%: 1% w/w antibiotic in PLA coupon; for zone of inhibition, articles comprising PLA, antibiotic concentration 2%: 2% w/w antibiotic in PLA coupon; for zone of inhibition, articles comprising PLA, antibiotic concentration 5%: 5% w/w antibiotic in PLA coupon; for zone of inhibition, articles comprising PCL polymer, antibiotic concentration 1%: 1% w/w antibiotic in PCL coupon; for zone of inhibition, articles comprising PCL polymer, antibiotic concentration 2%: 2% w/w antibiotic in PCL coupon; for zone of inhibition, articles comprising PCL polymer, antibiotic concentration 5%: 5% w/w antibiotic in PCL coupon
Protocol: Control coupons having the same physical dimensions and appearance as the test coupons, were printed with the […]® MOJO® printer by feeding the control filaments through the extrusion nozzle. The 2% and 5% tobramycin/PLA test coupons were printed with an extrusion temperature of 170° C., while the PLA control coupons and the 1% tobramycin/PLA test coupons were printed with an extrusion temperature of 205° C. The N12 control coupons, the 1%, 2%, and 5% gentamicin/N12 coupons, and the 1%, 2%, and 5% vancomycin/N12 coupons were printed at an extrusion temperature of 195° C. The remaining control coupons and test coupons were printed with an extrusion temperature of 170° C. The elution of antibiotics from the test coupons produced in Example 2 was assessed by the inhibition of the growth of S. aureus on the surfaces of Meuller Hinton agar contained within Petri dishes onto which test coupons placed. S. aureus cultures were grown on TSA amended with 5% sheep blood. A sufficient amount of S. aureus culture was transferred from the TSA culture plates to a 0.85% sterile saline solution to provide a uniform suspension that fell within a 0.5-2.0 McFarland turbidity standard. Aliquots of the S. aureus culture were plated onto Meuller Hinton agar in Petri dishes after which, two test coupons/dish (or alternatively, control coupons) were placed on the agar; one with its shiny side up and the other with its matte side up. The Meuller Hinton agar-containing Petri dishes were then incubated for about 72 hrs at temperatures in the range of about 35° C. to about 37° C. The zones of inhibition around each coupon were then measured and recorded (in mm) A clear zone around a test coupon indicates the inhibition of growth of S. aureus. […] The data shown in Tables 10, 11, and 12 confirm that all three antibiotics tested, i.e., tobramycin, gentamicin, and vancomycin, were eluted from articles printed with extruded antibiotic-containing polymers as evidenced by zones of inhibition of S. aureus cultures by articles comprising PLA polymer (Table 10), inhibition of S. aureus cultures by articles comprising PCL polymer (Table 11), and inhibition of S. aureus cultures by articles comprising HPDE polymer (Table 12). […] The control coupons for this study were taken from the batch of control coupons produced in Example 1. […] The data shown in Table 14 confirm that the three antibiotics were eluted from articles printed with extruded polymers comprising the three antibiotics.

Compound	zones of inhibition in the growth of S. aureus around the shiny surfaces [1] [mm]	zone of inhibition, articles comprising HDPE polymer, antibiotic concentration 1% ([2]; 1% w/w antibiotic in HDPE coupon) [mm]	zone of inhibition, articles comprising PLA, antibiotic concentration 1% [2] [mm]	zone of inhibition, articles comprising HDPE polymer, antibiotic concentration 2% ([2]; 2% w/w antibiotic in HDPE coupon) [mm]	zone of inhibition, articles comprising PLA, antibiotic concentration 2% [2] [mm]	zone of inhibition, articles comprising HDPE polymer, antibiotic concentration 5% ([2]; 5% w/w antibiotic in HDPE coupon) [mm]	zone of inhibition, articles comprising PLA, antibiotic concentration 5% [2] [mm]	zone of inhibition, articles comprising PCL polymer, antibiotic concentration 1% [2] [mm]	zone of inhibition, articles comprising PCL polymer, antibiotic concentration 2% [2] [mm]	zone of inhibition, articles comprising PCL polymer, antibiotic concentration 5% [2] [mm]
NC[C@H]1O[C@H](O[C@H]2[C@H](O)[C@@H](O[C@H]3O[C@H](CO)[C@@H](O)[C@H](N)[C@H]3O)[C@H](N)C[C@@H]2N)[C@H](N)C[C@@H]1O [Tobramycin, tobramycin]	37.7	27.0	37.7	28.5	27.5	37.5	28	–	–	–
gentamicin	–	–	34.0	–	26.5	–	37.5	32.0	38.5	41.0
CN[C@H](CC(C)C)C(=O)N[C@H]1C(=O)N[C@@H](CC(N)=O)C(=O)N[C@H]2C(=O)N[C@H]3C(=O)N[C@H](C(=O)N[C@H](C(=O)O)c4cc(O)cc(O)c4-c4cc3ccc4O)[C@H](O)c3ccc(c(Cl)c3)Oc3cc2cc(c3O[C@@H]2O[C@H](CO)[C@@H](O)[C@H](O)[C@H]2O[C@H]2C[C@](C)(N)[C@H](O)[C@H](C)O2)Oc2ccc(cc2Cl)[C@H]1O [Vancomycin, vancomycin]	–	–	–	–	–	–	–	28.5	25	28.5
